# Assays:
# [1] = tested on: MDA-MB-231 breast cancer cell line; experiment: induction of cell death, trypan blue exclusion assay; type: cell-based, human; settings: for induction of cell death (in words): different concentrations, 48 hours
# caspase-8, PARP = experiment: Western blot analysis of caspase-8 processing and PARP cleavage; settings: MDA-MB-231, within 24 h
SMILES,induction of cell death (in words) [1],concentration that effectively induces cell death [1] [nM],"lowest concentration inducing processing of caspase-8 and cleavage of PARP (caspase-8, PARP) [nM]"
CN[C@@H](C)C(=O)N[C@H]1Cc2ccccc2[C@H]2CC[C@@H](C(=O)NC(c3ccccc3)c3ccccc3)N2C1=O [Compound 5],capable of inducing cell death in a dose-dependent manner,–,–
CN[C@@H](C)C(=O)N[C@H]1Cc2ccccc2[C@H]2CC[C@@H](C(=O)N[C@@H]3CCCc4ccccc43)N2C1=O [Compound 6],most effective,100,100
CN[C@@H](C)C(=O)N[C@H]1Cc2ccccc2[C@H]2CCC[C@@H](C(=O)NC(c3ccccc3)c3ccccc3)N2C1=O [Compound 8],least effective,–,–

# — PMC2662380 (Journal of medicinal chemistry, 2008)
